Assay results: US9758529B2, “Fused dihydro-4H-pyrazolo[5,1-C][1,4]oxazinyl compounds and analogs for treating CNS disorders” (Sunovion Pharmaceuticals Inc., priority 2015, dated 2017)

What follows are molecules tested on mice (assay: Neuropharmacological Assay (SmartCube)). Conditions: i.p. 15 min before behavioral test; 3 doses, most efficacious dose(s) presented.
Format: in vivo

Structure (SMILES)	AD: ADHD (probability of class match)	AG: analgesic (probability of class match)	AX: anxiolytic (probability of class match)	CE: cognitive enhancer (probability of class match)	DP: anti-depressant (probability of class match)	HA: hallucinogen (probability of class match)	MS: mood stabilizer (probability of class match)	PS: anti-psychotic (probability of class match)	SD: sedative hypnotic (probability of class match)	UN: uncharacterized CNS activity (probability of class match)
CC1(CN)OCCn2nc3ccccc3c21.Cl (stereo not drawn) [Compound 39, (1-methyl-3,4-dihydro-1H-[1,4]oxazino[4,3-b]indazol-1-yl)methanaminium chloride]	+ (LOQ≦ + <5%)	+ (LOQ≦ + <5%)	++ (5%≦ ++ <25%)	+ (LOQ≦ + <5%)	++ (5%≦ ++ <25%)	+ (LOQ≦ + <5%)	+ (LOQ≦ + <5%)	+ (LOQ≦ + <5%)	+ (LOQ≦ + <5%)	+ (LOQ≦ + <5%)
c1ccc2c3n(nc2c1)CCOC31CNC1 [Compound 40, 3′,4′-dihydrospiro[azetidine-3,1′-[1,4]oxazino[4,3-b]indazol]-1-ium chloride]	+ (LOQ≦ + <5%)	++ (5%≦ ++ <25%)	+++ (25%≦ +++ <50%)	++ (5%≦ ++ <25%)	++ (5%≦ ++ <25%)	+ (LOQ≦ + <5%)	+ (LOQ≦ + <5%)	++ (5%≦ ++ <25%)	++ (5%≦ ++ <25%)	+ (LOQ≦ + <5%)
Cl.N[C@H](CC1CCC1)C1OCCn2nc3ccccc3c21 (stereo partly drawn) [Compound 41, (1R)-2-cyclobutyl-1-(3,4-dihydro-1H-[1,4]oxazino[4,3-b]indazol-1-yl)ethan-1-aminium]	+ (LOQ≦ + <5%)	+ (LOQ≦ + <5%)	+ (LOQ≦ + <5%)	+ (LOQ≦ + <5%)	+ (LOQ≦ + <5%)	+ (LOQ≦ + <5%)	+ (LOQ≦ + <5%)	+ (LOQ≦ + <5%)	+ (LOQ≦ + <5%)	+ (LOQ≦ + <5%)
Cl.c1ccc2c3n(nc2c1)CCOC3[C@H]1CNCCO1 (stereo partly drawn) [Compound 42, (2R)-2-(3,4-dihydro-1H-[1,4]oxazino[4,3-b]indazol-1-yl)morpholin-4-ium chloride]	+ (LOQ≦ + <5%)	+ (LOQ≦ + <5%)	+ (LOQ≦ + <5%)	+ (LOQ≦ + <5%)	+ (LOQ≦ + <5%)	+ (LOQ≦ + <5%)	+ (LOQ≦ + <5%)	+ (LOQ≦ + <5%)	+ (LOQ≦ + <5%)	+ (LOQ≦ + <5%)
Cl.c1ccc2c3n(nc2c1)CCOC3[C@@H]1COCCN1 (stereo partly drawn) [Compound 43, (3S)-3-(3,4-dihydro-1H-[1,4]oxazino[4,3-b]indazol-1-yl)morpholin-4-ium chloride]	+ (LOQ≦ + <5%)	+ (LOQ≦ + <5%)	+ (LOQ≦ + <5%)	+ (LOQ≦ + <5%)	+ (LOQ≦ + <5%)	+ (LOQ≦ + <5%)	+ (LOQ≦ + <5%)	+ (LOQ≦ + <5%)	+ (LOQ≦ + <5%)	+ (LOQ≦ + <5%)
Cl.c1ccc2c3n(nc2c1)CCOC31CCNC1 (stereo not drawn) [Compound 44, 3′,4′-dihydrospiro[pyrrolidine-3,1′-[1,4]oxazino[4,3-b]indazol]-1-ium chloride]	+ (LOQ≦ + <5%)	++ (5%≦ ++ <25%)	+++ (25%≦ +++ <50%)	++ (5%≦ ++ <25%)	++ (5%≦ ++ <25%)	+ (LOQ≦ + <5%)	+ (LOQ≦ + <5%)	++ (5%≦ ++ <25%)	+ (LOQ≦ + <5%)	+ (LOQ≦ + <5%)
CCN(C)C[C@@H]1OCCn2nc3ccccc3c21.Cl [Compound 49, N—(((S)-3,4-dihydro-1H-[1,4]oxazino[4,3-b]indazol-1-yl)methyl)-N-methylethanaminium chloride]	+ (LOQ≦ + <5%)	+++ (25%≦ +++ <50%)	++ (5%≦ ++ <25%)	++ (5%≦ ++ <25%)	++ (5%≦ ++ <25%)	+ (LOQ≦ + <5%)	+ (LOQ≦ + <5%)	+ (LOQ≦ + <5%)	++ (5%≦ ++ <25%)	+ (LOQ≦ + <5%)
CCN(C)C[C@H]1OCCn2nc3ccccc3c21.Cl [Compound 50, N—(((R)-3,4-dihydro-1H-[1,4]oxazino[4,3-b]indazol-1-yl)methyl)-N-methylethanaminium chloride]	++ (5%≦ ++ <25%)	+ (LOQ≦ + <5%)	+++ (25%≦ +++ <50%)	+ (LOQ≦ + <5%)	++++ (50%≦ ++++)	++ (5%≦ ++ <25%)	+ (LOQ≦ + <5%)	+ (LOQ≦ + <5%)	+ (LOQ≦ + <5%)	+ (LOQ≦ + <5%)
CNCC1OCCCn2nc3ccccc3c21.Cl (stereo not drawn) [Compound 51, 1-(4,5-dihydro-1H,3H-[1,4]oxazepino[4,3-b]indazol-1-yl)-N-methylmethanaminium chloride]	++ (5%≦ ++ <25%)	+ (LOQ≦ + <5%)	++ (5%≦ ++ <25%)	+ (LOQ≦ + <5%)	+++ (25%≦ +++ <50%)	+ (LOQ≦ + <5%)	+ (LOQ≦ + <5%)	+ (LOQ≦ + <5%)	+ (LOQ≦ + <5%)	+ (LOQ≦ + <5%)
CN(C)CC1OCCCn2nc3ccccc3c21.Cl (stereo not drawn) [Compound 52, 1-(4,5-dihydro-1H,3H-[1,4]oxazepino[4,3-b]indazol-1-yl)-N,N-dimethylmethanaminium chloride]	+ (LOQ≦ + <5%)	+ (LOQ≦ + <5%)	++ (5%≦ ++ <25%)	+ (LOQ≦ + <5%)	++ (5%≦ ++ <25%)	+ (LOQ≦ + <5%)	+ (LOQ≦ + <5%)	+ (LOQ≦ + <5%)	+ (LOQ≦ + <5%)	++ (5%≦ ++ <25%)
CCN(C)CC1OCCCn2nc3ccccc3c21.Cl (stereo not drawn) [Compound 53, N-((4,5-dihydro-1H,3H-[1,4]oxazepino[4,3-b]indazol-1-yl)methyl)-N-methylethanaminium chloride]	+ (LOQ≦ + <5%)	+ (LOQ≦ + <5%)	++ (5%≦ ++ <25%)	+ (LOQ≦ + <5%)	++ (5%≦ ++ <25%)	+ (LOQ≦ + <5%)	+ (LOQ≦ + <5%)	+ (LOQ≦ + <5%)	++ (5%≦ ++ <25%)	++ (5%≦ ++ <25%)
CC(C)N(C)CC1OCCCn2nc3ccccc3c21.Cl (stereo not drawn) [Compound 54, N-((4,5-dihydro-1H,3H-[1,4]oxazepino[4,3-b]indazol-1-yl)methyl)-N-methylpropan-2-aminium chloride]	+ (LOQ≦ + <5%)	+ (LOQ≦ + <5%)	++ (5%≦ ++ <25%)	+ (LOQ≦ + <5%)	+ (LOQ≦ + <5%)	+ (LOQ≦ + <5%)	+ (LOQ≦ + <5%)	+ (LOQ≦ + <5%)	+ (LOQ≦ + <5%)	+ (LOQ≦ + <5%)

Same assay, conditions: i.p. 15 min before behavioral test; 3 doses, most efficacious dose(s) presented

Structure (SMILES)	XG: anxiogenic (probability of class match)
CC1(CN)OCCn2nc3ccccc3c21.Cl (stereo not drawn) [Compound 39, (1-methyl-3,4-dihydro-1H-[1,4]oxazino[4,3-b]indazol-1-yl)methanaminium chloride]	+ (LOQ≦ + <5%)
c1ccc2c3n(nc2c1)CCOC31CNC1 [Compound 40, 3′,4′-dihydrospiro[azetidine-3,1′-[1,4]oxazino[4,3-b]indazol]-1-ium chloride]	+ (LOQ≦ + <5%)
Cl.N[C@H](CC1CCC1)C1OCCn2nc3ccccc3c21 (stereo partly drawn) [Compound 41, (1R)-2-cyclobutyl-1-(3,4-dihydro-1H-[1,4]oxazino[4,3-b]indazol-1-yl)ethan-1-aminium]	+ (LOQ≦ + <5%)
Cl.c1ccc2c3n(nc2c1)CCOC3[C@H]1CNCCO1 (stereo partly drawn) [Compound 42, (2R)-2-(3,4-dihydro-1H-[1,4]oxazino[4,3-b]indazol-1-yl)morpholin-4-ium chloride]	+ (LOQ≦ + <5%)
Cl.c1ccc2c3n(nc2c1)CCOC3[C@@H]1COCCN1 (stereo partly drawn) [Compound 43, (3S)-3-(3,4-dihydro-1H-[1,4]oxazino[4,3-b]indazol-1-yl)morpholin-4-ium chloride]	+ (LOQ≦ + <5%)
Cl.c1ccc2c3n(nc2c1)CCOC31CCNC1 (stereo not drawn) [Compound 44, 3′,4′-dihydrospiro[pyrrolidine-3,1′-[1,4]oxazino[4,3-b]indazol]-1-ium chloride]	+ (LOQ≦ + <5%)
CCN(C)C[C@@H]1OCCn2nc3ccccc3c21.Cl [Compound 49, N—(((S)-3,4-dihydro-1H-[1,4]oxazino[4,3-b]indazol-1-yl)methyl)-N-methylethanaminium chloride]	+ (LOQ≦ + <5%)
CCN(C)C[C@H]1OCCn2nc3ccccc3c21.Cl [Compound 50, N—(((R)-3,4-dihydro-1H-[1,4]oxazino[4,3-b]indazol-1-yl)methyl)-N-methylethanaminium chloride]	+ (LOQ≦ + <5%)
CNCC1OCCCn2nc3ccccc3c21.Cl (stereo not drawn) [Compound 51, 1-(4,5-dihydro-1H,3H-[1,4]oxazepino[4,3-b]indazol-1-yl)-N-methylmethanaminium chloride]	+ (LOQ≦ + <5%)
CN(C)CC1OCCCn2nc3ccccc3c21.Cl (stereo not drawn) [Compound 52, 1-(4,5-dihydro-1H,3H-[1,4]oxazepino[4,3-b]indazol-1-yl)-N,N-dimethylmethanaminium chloride]	+ (LOQ≦ + <5%)
CCN(C)CC1OCCCn2nc3ccccc3c21.Cl (stereo not drawn) [Compound 53, N-((4,5-dihydro-1H,3H-[1,4]oxazepino[4,3-b]indazol-1-yl)methyl)-N-methylethanaminium chloride]	+ (LOQ≦ + <5%)
CC(C)N(C)CC1OCCCn2nc3ccccc3c21.Cl (stereo not drawn) [Compound 54, N-((4,5-dihydro-1H,3H-[1,4]oxazepino[4,3-b]indazol-1-yl)methyl)-N-methylpropan-2-aminium chloride]	+ (LOQ≦ + <5%)
